Measured values as given in patent US20240285572A1 (priority 2023, published 2024).

Assays:
[1] = tested on: human patients having central serous chorioretinopathy (CSCR); experiment: Central macular thickness by OCT in CSCR patients given isosorbide dinitrate; format: in vivo
Procedure: The nitric-oxide releasing agent isosorbide dinitrate was given orally at 5 mg twice per day dosage for sublingual administration for 7 days for 7 human patients (CL, WZ, XC, LL, BZ, XZ, and LS) having central serous chorioretinopathy (CSCR). Average age of the patients is 41.6 years. 5 men and 2 women were enrolled in this study.

retinal blood flow = details: oral; glaucoma patients and diabetics; Zurakowski 1998, Weigert 2008; cited from earlier work
[2] = tested on: acute central retinal artery occlusion; details: sublingual route; cited from earlier work

SMILES | Central macular OCT thickness, overall change ([1]; 7 human CSCR patients, 5 mg twice per day sublingual for 7 days, 7-10 days after treatment) | Subretinal fluid status after treatment ([1]; patient, eye OD) | Retinal blood flow (retinal blood flow) | Treatment outcome in acute central retinal artery occlusion [2]
O=[N+]([O-])O[C@H]1CO[C@H]2[C@@H]1OC[C@H]2O[N+](=O)[O-] [isosorbide dinitrate, 1,4:3,6-dianhydro-2,5-di-O-nitro-D-glucitol] | generalized decrease | fluid resolved) |  | 
O=[N+]([O-])OCC(CO[N+](=O)[O-])O[N+](=O)[O-] [nitroglycerin, 1,2,3-Tris(nitrooxy)propane] |  |  | retinal blood flow improves | variable success
